This passage reports MEMRI signal results from patent US20160199517A1, “MRI EVALUATION OF HETEROGENEOUS TISSUE” (The Board of Trustees of the Leland Stanford Junior …, priority 2015, published 2016).

This test has as its system Ca^2+ channel. Briefly: MEMRI signal modulated by Ca2+ channel activity in single cell culture. In kind it is cell-based, human. The settings on record: cells labelled with Mn^2+; Ca^2+ channel antagonist or agonist.

Consider (s)-Bay K8644, for which the MEMRI signal result was “increased”.
